# Measurements published in paper PMC11870044, “Exploring the Antibacterial and Antiparasitic Activity of Phenylaminonaphthoquinones—Green Synthesis, Biological Evaluation and Computational Study” (International Journal of Molecular Sciences, 2024).
# Like-named read-outs stand apart in the source and are kept apart here.
# What was measured:
# [1] = tested on: Escherichia coli (ATCC 25922); assay: Minimum inhibitory concentration, broth dilution method; format: cell-based; conditions: ATCC25922, broth dilution, triplicate, read-out: MIC E. coli G−
# Method: (§1) The microorganisms used were Staphylococcus aureus (ATCC 25923), Proteus mirabilis (ATCC 12453) Enterococcus faecalis (ATCC 29212), Escherichia coli (ATCC 25922), Salmonella typhimurium (ATCC 19585), and Klebsiella pneumoniae (ATCC 700603).
# (§2) The antimicrobial activity of the phenylaminonaphthoquinones 1–12 was determined by the broth dilution method. The following concentrations were tested: 200, 100, 50, 25, and 12.5 μg/mL. After incubation, the microbial growth was examined. The results are expressed in minimum inhibitory concentration (MIC), the lowest concentration of phenylaminonaphthoquinones with no visible growth. The bactericidal/bacteriostatic activity was determined by sub-cultivation of the samples in normal culture media at appropriate temperatures and incubation times. The MIC of each compound was performed in triplicate. The compounds 1–12 were dissolved in DMSO. Cefazolin and cefotaxime were used as positive controls at the same compound concentrations.
# [2] = tested on: Enterococcus faecalis (ATCC 29212); assay: as above; format: cell-based; conditions: ATCC29212, broth dilution, triplicate, read-out: MIC E. faecalis G+
# Method: as §1, §2
# [3] = tested on: Klebsiella pneumoniae (ATCC 700603); assay: as above; format: cell-based; conditions: ATCC700603, broth dilution, triplicate, read-out: MIC K. pneumonia G−
# Method: as §1, §2
# [4] = tested on: Proteus mirabilis (ATCC 12453); assay: as above; format: cell-based; conditions: ATCC12453, broth dilution, triplicate, read-out: MIC P. mirabilis G+
# Method: as §1, §2
# [5] = tested on: Salmonella typhimurium (ATCC 19585); assay: as above; format: cell-based; conditions: Salmonella enterica; broth dilution, triplicate; read-out: MIC S. typhimurium G−
# Method: as §1, §2
# [6] = tested on: Staphylococcus aureus (ATCC 25923); assay: as above; format: cell-based; conditions: triplicate; for MIC: Staphylococcus aureus, ATCC25923, broth dilution, read-out: MIC S. aureus G+; for MIC S. aureus G+: broth dilution
# Method: as §1, §2
# [7] = tested on: Plasmodium falciparum FCR-3 (chloroquine-resistant); assay: In vitro antiplasmodial screening, parasitemia by flow cytometry; format: cell-based; set-up: Plasmodium falciparum FCR-3 Growth Inhibition (%): concentration or dose not given beside the values; conditions: for IC50: Plasmodium falciparum, read-out: Plasmodium falciparum FCR-3 IC50; for Plasmodium falciparum FCR-3 Growth Inhibition (%): mean ± SD
# Method: (§3) The antimalarial activity assay was performed using Plasmodium falciparum 3D7 (chloroquine-sensitive) and FCR-3 (chloroquine-resistant) reference strains, which were cultured in vitro following the method described by Trager et al. with some modifications.
# (§4) The experiments were performed in 96-well culture plates, where the stock solutions of compounds 1–12 (1, 0.1, 0.01, and 0.001 µg/mL) were tested. A total of 100 µL of each product was distributed in triplicate on the culture plates, and 100 µL of a red blood cell suspension (4% hematocrit, final parasitemia of 1% ring stage) was added, resulting in a final volume of 200 µL. The test plates were incubated at 37 °C for 48 h, and parasitemia was determined by flow cytometry (BDFACScalibur). Erythrocytes were taken from each well culture plate, and 100 µL of ethidium bromide (10 µg/mL) was added and incubated for 30 min. A total of 100,000 cells per well culture plate were acquired and analyzed. The IC50 of the pure products was determined by a regression curve of the percentage inhibition of parasite activity as a function of the logarithmic dose. Chloroquine diphosphate was used as the reference drug.
# [8] = tested on: Plasmodium falciparum 3D7 (chloroquine-sensitive); assay: as above; format: cell-based; set-up: Plasmodium falciparum 3D7 Growth Inhibition (%): concentration or dose not given beside the values; conditions: for Plasmodium falciparum 3D7 Growth Inhibition (%): mean ± SD; for IC50: Plasmodium falciparum
# Method: as §3, §4
# [9] = Experimental log P, shake-flask method n-octanol/water; format: physicochemical; conditions: 25 ± 1 °C
# Method: The mixture was then allowed to stand for 24 h at the same temperature for further phase separation. A stock solution with a concentration of 0.01 mol per liter in water, pre-saturated with n-octanol, was prepared for each compound. Duplicate test vessels containing a mixture of the stock solution and n-octanol (pre-saturated with water) were shaken on a vortex shaker for 5 min. Phase separation was achieved by centrifugation of the vessels for 3 min at 4000× g (25 ± 1 °C), and the concentration of the solute in the water phase (C water) was measured from their absorbance at 205 nm using a UV spectrophotometer. The partition coefficient was calculated using the following equation. Log Po/w = Log(C n-octanol/C water)
# All the measurements were carried out at room temperature (25 ± 1 °C). In order to check the performance of the method, aniline was used as a reference substance.
# P. falciparum 3D7 = tested on: P. falciparum 3D7; set-up: method as in PMID 33333397; conditions: literature compounds of Figure 2; read-out: IC50 against the 3D7 strain; cited from earlier work
# [10] = 3D7 chloroquine-sensitive, 48 h
# [11] = FCR-3 chloroquine-resistant, 48 h
# [12] = FCR3, FCR-3 chloroquine-resistant, 48 h
# [13] = 3D7 chloroquine-sensitive, 48 h, read-out: Plasmodium falciparum 3D7 IC50
Compound,MIC [1] [µg/mL],MIC [2] [µg/mL],MIC [3] [µg/mL],MIC [4] [µg/mL],MIC [5] [µg/mL],MIC [6] [µg/mL],"IC50 ([7]; FCR3, 48 h) [µg/mL]","Plasmodium falciparum 3D7 IC50 [8, 10] [µg/mL]",logP [9],"Plasmodium falciparum FCR-3 Growth Inhibition (%) [7, 11] [%]","IC50 [7, 12] [µg/mL]","Plasmodium falciparum 3D7 Growth Inhibition (%) [8, 10] [%]","IC50 [8, 13] [µg/mL]",MIC S. aureus G+ [6] [µg/mL],IC50 (P. falciparum 3D7) [µM],"Enhancement of antiplasmodial activity versus literature 2-amino/2-phenylaminonaphthoquinones ([8]; 3D7 strain, equimolar comparison)",Potency relative to chloroquine against 3D7 strain ([8]; IC50 0.0049 vs 0.06 μg/mL),"IC50 ([8]; 3D7, read-out: IC50 against 3D7 strain at equimolar concentrations) [µM]"
"Cc1nnc(SCC2=C(C(=O)O)N3C(=O)[C@@H](NC(=O)Cn4cnnn4)[C@H]3SC2)s1 [CFZ, cefazolin, reference compound]",> 50,8.4,8.5,5.6,7.1,4.2,,,,,,,,,,,,
"CCN(CC)CCCC(C)Nc1ccnc2cc(Cl)ccc12 (stereo not shown) [CQ, chloroquine, reference compound]",,,,,,,0.33,0.06,,,,,,,,,,
"CO/N=C(\C(=O)N[C@@H]1C(=O)N2C(C(=O)O)=C(COC(C)=O)CS[C@H]12)c1csc(N)n1 [CTX, cefotaxime, reference compound]",> 50,10.9,8.4,8.9,8.2,8.9,,,,,,,,,,,,
"O=C1C=C(Nc2ccccc2)C(=O)c2ccccc21 [Compound 1, 2-phenylamino-1,4-naphthoquinone]",26.3,49.9,> 50,40,38.8,3.2 to 5.7,,,1.42 ± 0.21,65.0 ± 1.0,0.74,58.0 ± 3.0,0.16,3.9,,,,
NC1=CC(=O)c2ccccc2C1=O [Compound 2-amino],,,,,,,,,,,,,,,5.14,,,
O=C1C(Cl)=C(Nc2ccccc2)C(=O)c2ccccc21 [Compound 2],> 50,> 50,> 50,39.9,> 50,36.5,,,1.61 ± 0.11,13.0 ± 2.0,> 1,37.0 ± 1.0,> 1,,,,,
Cc1ccccc1NC1=CC(=O)c2ccccc2C1=O [Compound 3],25.5,50,26.3,19.9,13.2,3.2 to 5.7,,,1.89 ± 1.12,97.0 ± 0.2,0.12,98.0 ± 1.0,0.0049,3.8,,more than 250 fold,more than 10 fold,0.0186
Cc1ccccc1NC1=C(Cl)C(=O)c2ccccc2C1=O [Compound 4],> 50,37.1,44.6,40.9,32.5,> 50,,,2.2 ± 0.13,56.0 ± 1.0,0.86,42.0 ± 2.0,> 1,,,,,
